# Laboratory results reported in patent publication US20240206465A1, “ACTIVE POLYMERIC FILMS AND POLYMERIC COMPOSITIONS” (Yissum Research Development Company of the Hebrew …, priority 2021, published 2024).
# Square brackets hold non-standard residues; d marks the D form. Ends that are not written are not given here. Phe(4-F) = N[C@@H](Cc1ccc(F)cc1)C(=O)O; Dopa = N[C@@H](Cc1ccc(O)c(O)c1)C(=O)O
# Key:
# [1] = test system: canine coronavirus; details: peptide assemblies deposited on the glass surface; cited from earlier work
# [2] = Thermogravimetric analysis (thermal stability); assay type: physicochemical; details: at 160° C.; contained the absorbed water; FIG. 4A
# Experimental: Thermogravimetric analysis (TGA). TGA measurements were performed using the TGA Q5000 system (TA instruments, USA) at a heating rate of 10° C./min under nitrogen atmosphere, starting from room temperature to 800° C. The results were analyzed using Universal Analysis 200 version 4.5 A build 4.5.0.5 software.
# [3] = test system: T4 phage; details: peptide assemblies deposited on the glass surface; cited from earlier work
substance,measurement,setting,value
[Dopa]-[Phe(4-F)]-[Phe(4-F)]-OMe,antiviral activity against canine coronavirus,[1],acted against
same,weight loss of the peptide (TGA),[2],< 3 wt %
same,antiviral activity against T4 phage,[3],acted against
